According to patent US20220160751A1, “METHODS OF TREATMENT OF DISEASES AND DISORDERS ASSOCIATED WITH INCREASED TET LEVEL, INCREASED H19 LEVEL, INCREASED LEVEL OF TGF SIGNALING, OR ANY COMBINATION THEREOF” (YALE UNIVERSITY, priority 2019, published 2022):

How the values were obtained:
[1] = tested on: LX-2 human hepatic stellate cells; experiment: qPCR and immunoblotting of gene expression in LX-2 cells; format: cell-based
Description: LX-2 human hepatic stellate cells (Yale Liver Center) were maintained in DMEM (Gibco, 11965-092) supplemented with 10% heat-inactivated fetal bovine serum (Gibco, 26140-079) and 1% PS (penicillin and streptomycin) at 37° C. in 5% humidified CO2 tissue culture incubator. Generally, cells were plated and transfected in a 24-well plate scale. For transfection with siRNA, let-7, or iLet7, 10 pmol of siTET3 (or siCon), let-7 (or miCon), or iLet7 (iCon) were mixed with 25 μl of OPTI-MEM (Gibco, 31985-070) by gentle pipetting. In parallel, 1 μl of Lipofectamine 3000 (ThermoFisher Scientific, L3000015) was mixed with 25 μl of OPTI-MEM. Then, the contents from the two tubes were mixed by gentle pipetting. After incubation for 5 min at RT, the resulting 50 μl solution was used to resuspend cell pellet (5×10^4 cells). After incubation at RT for 10 min, 450 μl of growth medium was added and the cell suspension was transferred into one well of a 24-well plate. For transfection with TET3-expression plasmid pTET3 (pcDNA-Flag-Tet3, Addgene plasmid #60940, (30)) or control vector, 5×10^4 cells per well were seeded in a 24-well plate the night before transfection. The next day, 0.75 μg of pTET3 (or Vec) were mixed with 1 μl of P3000 in 25 μl of OPTI-MEM by gentle pipetting. In parallel, 0.5 μl of Lipofectamine 3000 were mixed with 25 μl of OPTI-MEM. The contents from the two tubes were combined by gentle pipetting and incubated for 5 min at RT. The resulting 50 μl of transfection solution was added to each well of cells seeded in a 24-well plate the night before and from which the growth medium had been removed. After 6 h of incubation in a tissue culture incubator, 500 μl of growth medium were added to each well of cells. For TGF-β1 (Sigma, USA) treatment experiments, transfected cells were incubated in 500 μl of serum-free DMEM containing 5 ng/mL TGF-β1 (diluted with HCl) or HCl (as control) for 24 h or 48 h as indicated.
Total RNA was extracted from cultured cells or liver tissue samples using PureLink RNA Mini Kit (Ambion, 12183018A). 0.8 μg of total RNA was reverse transcribed to cDNA in a reaction volume of 10 μl using PrimeScript RT Reagent Kit (TAKARA, RR037A). Quantitative real-time PCR reactions were carried out using iQSYBRGreen (Bio-Rad) in a Bio-Rad iCycler. Gene expression levels were normalized against housekeeping genes HPRT1 and RPLP0.
For liver tissue samples, 5-10 mg of tissues were homogenized by sonication (Qsonica, Model Q125) in 150 μl of 2×SDS-sample buffer. Samples were immediately heated at 100° C. for 3 min with occasional vertexing. Then, 100 μl of 2×SDS-sample buffer was added to each sample and the 250 μl of tissue lysate were further homogenized by sonication and heated again at 100° C. for 3-5 min with vertexing once every 15 sec. Samples (further diluted at 1:1 with 2×SDS-sample buffer before loading) were loaded 5-10 μl per well onto a 4-15% gradient SDS gel, followed by Western blot analysis. Image J was used to quantify the protein bands.

[2] = tested on: UtLM and ht-UtLM leiomyoma cells; experiment: RT-qPCR and Western blot of gene expression in leiomyoma cells; format: cell-based, human
Source text: Antibodies for TET3 (GeneTex, GTX121453; used at a dilution of 1/500), TGFBR2 (Abcam, ab184948; used at a dilution of 1/1000), TSP1 (Abcam, ab85762; used at a dilution of 1/500), MED12 (Novus Biological, NB100-2357; used at a dilution of 1/500), HMGA2 (Proteintech, 20795-1-AP; used at a dilution of 1/500), GRAF1 (Cell Signaling, 8802; used at a dilution of 1/500), SPARC (Cell Signaling, 8725; used at a dilution of 1/500), COL3A1 (LS-Bio, LS-C159386; used at a dilution of 1/1000), COL4A1 (LS-Bio, LS-C100552; used at a dilution of 1/500), COL5A2 (Origene, TA809611; used at a dilution of 1/500) and GAPDH (Abcam, ab128915; used at a dilution of 1/10000) were purchased. Human H19 siRNA (siH19) and control siRNA (siCon) were previously described (Ghazal S et al., 2015, EMBO Mol Med 7:996-1003). siTET3 (Ambion, 4392420/s47239), estradiol ([…], Sigma), and progesterone ([…], Sigma) were purchased. Estradiol and progesterone were dissolved in DMSO and used at a final concentration of 10^-8M. ht-UtLM cells tested negative for mycoplasma contamination were maintained in MEM (Sigma, #M3024) supplemented with 20% fetal bovine serum, 1×MEM Vitamin Solution (Invitrogen #11120-052), 1×MEM Amino Acids Solution (Invitrogen, #11130-051), and 1×MEM Non-Essential Amino Acids (Invitrogen #11140-050). Primary UtLM-1 and UtLM-2 cells were maintained in DMEM (Gibco, #10567014) supplemented with 20% fetal bovine serum, and 1% penicillin/streptomycin, 1% amphotericin B. All cells were transfected in a 24-well plate scale. To prepare siRNA transfection solution for each well, 10 pmol (5 pmol for primary cells) of siCon, siH19, or siTET3 were mixed with 25 μl of OPTI-MEM by gentle pipetting. In parallel, 1 μl of Lipofectamine 3000 was mixed with 25 μl of OPTI-MEM. Following 5 min of incubation at room temperature, the two were mixed by gentle inverting and incubated for 10 min at room temperature to allow siRNA/lipid complexes to form. At the end of incubation, the 50 μl of transfection solution was used to re-suspend the cell pellet (3×10^4 cells). After incubation at room temperature for 10 min, growth medium was added at a ratio of 1:9 (1 volume of transfection solution/9 volumes of growth medium), and the cell suspension was transferred to a new culture dish. After overnight incubation in a tissue culture incubator, the medium was replaced with fresh growth medium. For iLet 7 rescue experiments, 10 pmol of siCon/siH19 and 10 pmol of iCon/iLet7 were used for each well of 3×10^4 cells. RNA, genomic DNA, and protein were extracted and analyzed at the indicated time points following transfection.

## siTET3: TET3-specific siRNA (human), Ambion 4392420/s47239 (sense CAGCAACUCCUAGAACUGATT; antisense UCAGUUCUAGGAGUUGCUGGA; chemistry not given here)
[1]; 48 h post-transfection, vs siCon or Vec
  expression of TGFB1, TSP1 and TGFBR2 (mRNA and protein): decreased expression of TGFB1, TSP1 and TGFBR2
[1]; TET3 siRNA 24 h, then TGF-β1 5 ng/mL 24 h
  TGF-β1-induced TGF-β signaling and profibrotic gene expression: the effects were no longer observed
[2]; UtLM cells, vs siCon
  protein levels of MED12, TGFBR2, TSP1, GRAF1, SPARC, COL5A2, COL4A1, COL3A1 (Western blot): all decreased
[2]; ht-UtLM cells
  MED12 expression: lack of effects
[2]; primary human leiomyoma cells and ht-UtLM, 48 h, vs siCon
  mRNA expression of TET3, MED12, TGFBR2, TSP1, GRAF1, SPARC, COL3A1, COL4A1 and COL5A2: results similar to those of H19 knockdown were obtained
